Several values for one entry are separate records, joined by “and”; a condition that tells them apart may be missing. Identical values can stand only once. Counter-ions that a name gives are not always drawn.
How the values were obtained:
albumin of rats = molecular target: T1, albumin of rats (Rattus norvegicus, UniProt P02770); assay: SEB test applied to serum of ethanol-treated rats; format: binding; conditions: L-thyroxine at 1/5, Au at 1/50
T1 construct: The SEB test was performed in the serum of all groups of rats; from tissue; host or cells: serum of male Wistar rats (ethanol-treated and control)
T1 sequence (P02770 25-608): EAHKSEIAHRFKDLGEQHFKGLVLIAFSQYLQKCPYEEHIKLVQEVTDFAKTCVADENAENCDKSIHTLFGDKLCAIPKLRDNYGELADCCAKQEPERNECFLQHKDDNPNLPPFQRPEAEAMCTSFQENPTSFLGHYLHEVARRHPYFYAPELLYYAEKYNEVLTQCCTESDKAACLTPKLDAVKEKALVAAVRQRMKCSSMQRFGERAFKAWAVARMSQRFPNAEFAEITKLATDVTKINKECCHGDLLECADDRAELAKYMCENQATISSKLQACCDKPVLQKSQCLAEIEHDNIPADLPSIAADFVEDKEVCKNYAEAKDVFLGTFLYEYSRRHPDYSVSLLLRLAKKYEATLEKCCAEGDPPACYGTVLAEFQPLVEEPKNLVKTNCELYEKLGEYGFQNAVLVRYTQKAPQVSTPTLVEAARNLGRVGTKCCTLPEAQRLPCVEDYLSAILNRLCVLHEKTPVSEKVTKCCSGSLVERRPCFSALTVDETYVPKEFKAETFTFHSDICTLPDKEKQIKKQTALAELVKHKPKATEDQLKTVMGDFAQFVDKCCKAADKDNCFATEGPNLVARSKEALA

HSA [1] = molecular target: T2, HSA (Homo sapiens, UniProt P02768); assay: Enhanced binding capacity of serum/HSA: serum of patients with no liver dysfunction spiked with ligand, ultrafiltration, ICP-MS of unbound ligand
T2 sequence (P02768 25-609): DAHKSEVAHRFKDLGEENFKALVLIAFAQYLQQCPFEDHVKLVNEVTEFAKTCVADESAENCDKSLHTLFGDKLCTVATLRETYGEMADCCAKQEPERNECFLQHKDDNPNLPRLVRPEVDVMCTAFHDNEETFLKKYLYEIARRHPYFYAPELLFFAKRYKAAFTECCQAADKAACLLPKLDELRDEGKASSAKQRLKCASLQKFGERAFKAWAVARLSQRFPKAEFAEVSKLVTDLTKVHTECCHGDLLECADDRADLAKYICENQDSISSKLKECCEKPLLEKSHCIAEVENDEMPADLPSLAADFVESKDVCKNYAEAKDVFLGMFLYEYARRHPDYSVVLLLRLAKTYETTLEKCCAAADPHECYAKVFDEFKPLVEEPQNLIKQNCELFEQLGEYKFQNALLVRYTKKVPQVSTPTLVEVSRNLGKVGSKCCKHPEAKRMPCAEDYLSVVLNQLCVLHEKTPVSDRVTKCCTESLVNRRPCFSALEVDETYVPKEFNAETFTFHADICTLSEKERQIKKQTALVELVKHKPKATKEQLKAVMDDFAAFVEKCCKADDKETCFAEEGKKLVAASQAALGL

HSA [2] = molecular target: T2, HSA; assay: SEB test, development cohort: 45 cirrhotic vs 45 control patients; format: binding; conditions: 45 cirrhotic vs 45 controls
HSA [3] = molecular target: T2, HSA; assay: SEB test, discovery cohort: cirrhotic patients vs patients with no liver dysfunction; format: binding; conditions: for sensitivity of discrimination of cirrhotic from control patients / specificity of discrimination of cirrhotic from control patients: discovery cohort, 18 cirrhotic vs 18 controls, HSA/ligand Au 1/100, Cu 1/10, dansylsarcosine 1/5, L-thyroxine 1/10
HSA [4] = molecular target: T2, HSA; conditions: literature [21]; cited from earlier work
HSA [5] = molecular target: T2, HSA; assay: Same binding test with Vialebex commercial albumin solution at 200 mg/mL; conditions: Vialebex commercial solution of pure HSA

O.O.O.[Cl][Au]([Cl])[Cl] [Au, gold(III) chloride trihydrate]
SEB test result in rat serum (albumin of rats; as soon as D1 (ethanol for 1 day)): positive

[Cd] [Cd]
atoms bound per molecule of albumin (HSA [1]; serum samples, 100% retention): ≤ 50 atoms per molecule of albumin
specificity (Sp) (HSA [2]): 98%
SEB test result in rat serum (albumin of rats; group D14 (ethanol for 14 days), Cu, Cd): positive

[Cl][Cu][Cl] [Cu, copper(II) chloride]
retention when more Cu was added (HSA [1]; above 12 Cu atoms per albumin molecule): ≤ 40%
Cu atoms per albumin molecule retained on the ultracentrifugation filter (HSA [1]; serum of patients with no liver dysfunction, average retention of 95%): up to 12 atoms per albumin molecule
average retention (HSA [1]; up to 12 Cu atoms per albumin molecule): 95%
specificity (Sp) (HSA [2]): 98%
Ratio Cu/HSA, reference value (HSA [3]; control patients, mean): 4.3 μM/μg/L
sensitivity of discrimination of cirrhotic from control patients (HSA [3]): 100%
specificity of discrimination of cirrhotic from control patients (HSA [3]): 72%
Ratio Cu/HSA (ligand in the filtrate / albumin) (HSA [3]; individual cirrhotic patients 1-18, one value per patient, HSA/Cu 1/10): 7.5 μM/μg/L and 4.97 μM/μg/L and 9.33 μM/μg/L and 15.85 μM/μg/L and 5.5 μM/μg/L and 10.45 μM/μg/L and 9.07 μM/μg/L and 6.86 μM/μg/L and 9.64 μM/μg/L and 7.54 μM/μg/L and 6.74 μM/μg/L and 4.76 μM/μg/L and 5.59 μM/μg/L and 8.25 μM/μg/L and 10.68 μM/μg/L and 11.02 μM/μg/L and 5.26 μM/μg/L and 5.56 μM/μg/L
Ratio Cu/HSA (ligand in the filtrate / albumin) (HSA [3]; patient 19, NASH without cirrhosis): 5.1 μM/μg/L
atoms of Cu HSA is able to bind (reported) (HSA [4]): less than 2 atoms
ligand/HSA retention ratio (HSA [5]): 40

CN(C)c1cccc2c(S(=O)(=O)N(C)CC(=O)O)cccc12 [dansylsarcosine, Dansylsarcosine Piperidinium Salt]
molecules bound per molecule of albumin (HSA [1]; serum samples, 100% retention, L-thyroxine not testable above 1/10 ratio (dissolution problems)): ≤ 2.5 molecules per molecule of albu
specificity (Sp) (HSA [2]): 98%
Ratio DS/HSA, reference value (HSA [3]; control patients, mean): 0.23 μM/μg/L
sensitivity of discrimination of cirrhotic from control patients (HSA [3]): 100%
specificity of discrimination of cirrhotic from control patients (HSA [3]): 100%
Ratio DS/HSA (ligand in the filtrate / albumin) (HSA [3]; individual cirrhotic patients 1-18, one value per patient, HSA/dansylsarcosine 1/5, listed as DS): 4.77 μM/μg/L and 2.26 μM/μg/L and 5.71 μM/μg/L and 7.58 μM/μg/L and 0.78 μM/μg/L and 16.38 μM/μg/L

Reference: patent US20220018852A1, “METHODS AND KITS FOR DETECTING LIVER DYSFUNCTION IN A SUBJECT” (priority 2018, published 2022)
